Data as given in patent US4963570A, “1-(acetylaminophenyl)-2-aminopropanone derivatives and pharmaceutical compositions thereof” (Laboratoire L. Lafon, priority 1983, dated 1990).
“Also recorded” adds a separate entry of the source.

Experiments:
male mice [1] = conditions: reference stimulant agents; cited from earlier work
rats [2] = experiment: action on stereotypies in rats (α-methyltyrosine, haloperidol, reserpine); conditions: for suppression of induced stereotype movements by prior injection of alpha-methyltyrosine: i.p.
rats [3] = experiment: overall behavior and reactivities in rats; format: in vivo, rat; conditions: i.p., dose not stated
Experimental: (§1) Groups of three animals are observed before and then 0.25 hour, 0.50 hour, 1 hour, 2 hours, 3 hours and 24 hours after the administration of CRL 41 224.

rats [4] = experiment: interaction with apomorphine in rats; format: in vivo, rat; conditions: i.p., dose not stated
Experimental: CRL 41 224 is administered to groups of 6 rats 0.5 hour before the subcutaneous injection of 0.5 mg/kg of apomorphine.

CNS = experiment: overall neuropsychopharmacological (CNS) profile; format: in vivo, mouse; rat; conditions: i.p., mice and rats; dose not stated
Experimental: The neuropsychopharmacological study of CRL 41 219 was carried out as indicated above for CRL 41 224.
The neuropsychopharmacological study of CRL 41 220 was carried out in accordance with the procedures given above for CRL 41 224.

mice [5] = experiment: interaction with barbital; format: in vivo, mouse; conditions: i.p.; dose not stated
Experimental: Half an hour after the administration of CRL 41 224, groups of 10 mice receive an intraperitoneal injection of barbital (220 mg/kg).

mice [6] = experiment: overall behavior and reactivities in mice; format: in vivo, mouse; conditions: mice, i.p.; dose not stated
Experimental: as §1

mice [7] = experiment: action on the spontaneous motility (actimeter); format: in vivo, mouse; conditions: mice, i.p.; dose not stated
Experimental: 0.5 hour after they have received CRL 41 224, the mice (6 per dose, 12 control animals) are placed in an actimeter, where their motility is recorded for 30 minutes.

rats [8] = experiment: interaction with amphetamine; format: in vivo, rat; conditions: rats, i.p.; dose not stated
Experimental: Amphetamine (2 mg/kg) is injected intraperitoneally into groups of 6 rats 30 minutes after the administration of CRL 41 224.

mice [9] = experiment: interaction with reserpine; format: in vivo, mouse; conditions: i.p.; dose not stated
Experimental: Four hours after the intraperitoneal injection of 2.5 mg/kg of reserpine, groups of 6 mice receive CRL 41 224.

mice [10] = experiment: interaction with apomorphine in mice; format: in vivo, mouse; conditions: i.p.; dose not stated
Experimental: Groups of 6 mice receive CRL 41 224 0.5 hour before the subcutaneous injection of 1 or 16 mg/kg of apomorphine.

male mice [11] = experiment: acute toxicity, intraperitoneal (lethal doses); format: in vivo, mouse; conditions: i.p.
Experimental: By intraperitoneal administration to male mice, the LD-30 (lethal dose for 30% of the animals tested) is of the order of 128 mg/kg and the LD-50 is of the order of about 200 mg/kg.

mice [12] = experiment: motility reduced by hypoxic aggression; format: in vivo, mouse; conditions: i.p., dose not stated
Experimental: Half an hour after they have received CRL 41 224, the mice (10 per dose, 20 control animals) are subjected to acute hypobaric anoxia [pressure reduction of 600 mm Hg (i.e. about 8×10^4 Pa) in 90 seconds; release of vacuum in 45 seconds] and are then placed in an actimeter, where their motility is recorded for 10 minutes.

mice [13] = experiment: action on the behavioral despair; format: in vivo, mouse; conditions: i.p., dose not stated
Source text: Half an hour after they have received CRL 41 224, groups of 6 mice are placed in a beaker filled with water to a height of 6 cm. The total period of immobility between the 2nd and 6th minutes following immersion is noted.

mice [14] = experiment: four plate test, traction and electric shock; format: in vivo, mouse; conditions: i.p.
Experimental: The test is performed on groups of 10 mice 30 minutes after the administration of CRL 41 224.

mice [15] = experiment: motility reduced by habituation to the enclosure; format: in vivo, mouse; conditions: i.p., dose not stated
Experimental: After they have stayed in the actimeters for 18 hours, the mice (6 per dose, 12 control animals) receive CRL 41 224. They are immediately returned to their respective enclosures and, half an hour later, their motility is recorded for 30 minutes.

mice [16] = experiment: action on the intergroup aggression; format: in vivo, mouse; conditions: i.p., dose not stated
Experimental: After they have stayed for 3 weeks in the 2 halves of a cage divided by an opaque partition, groups of 3 mice receive CRL 41 224. Half an hour later, the two groups from the same cage are brought together by removal of the partition, and the number of fights which occur in 10 minutes is noted. Half the test is performed on ordinary mice (NMRI, C.E.R. January) and half on NMRI (Iffa Credo) mice.

[17] = system: peripheral α-adrenergic stimulation; experiment: signs of peripheral adrenergic stimulation; format: in vivo, mouse; rat; conditions: i.p., dose not stated
Experimental: as §1

mice [18] = experiment: interaction with oxotremorine; format: in vivo, mouse; conditions: i.p.; for hypothermia induced by oxotremorine / trembling caused by oxotremorine: dose not stated
Experimental: CRL 41 224 is administered to groups of 6 mice 0.5 hour before the intraperitoneal injection of 0.5 mg/kg of oxotremorine.

mice [19] = experiment: toxicity to grouped mice compared with isolated mice; format: in vivo, mouse

Compound | motor effects with I.V.C. administration of noradrenaline (male mice [1]) | stereotype movements in rats (rats [3]) | stereotypies induced by apomorphine (rats [4]) | overall action on the CNS (CNS) | sleep induced by barbital (mice [5]) | excitation in mice (mice [6]) | spontaneous motility / motor activity (mice [7]) | stereotypies induced by amphetamine (rats [8]) | hypothermia induced by reserpine (mice [9]) | ptosis induced by reserpine (mice [9]) | hypothermia induced by apomorphine (mice [10]) | motor recovery after hypoxic aggression (mice [12]) | period of immobility or "despair" (mice [13]) | motor activity after habituation to the enclosure (mice [15]) | mydriasis [17] | peripheral adrenergic stimulation, overall [17] | hypothermia induced by oxotremorine (mice [18]) | further results
CN1Cc2c(N)cccc2C(c2ccccc2)C1 (stereo not shown) [nomifensine] | potentialized by I.V.C. administration of noradrenaline |  |  |  |  |  |  |  |  |  |  |  |  |  |  |  |  | 
CC(N)Cc1ccccc1 (stereo not shown) [amphetamine, reference compound] | potentialized by I.V.C. administration of noradrenaline |  |  |  |  |  |  |  |  |  |  |  |  |  |  |  |  | effect of haloperidol on induced stereotypies (rats [2]; haloperidol 0.25 mg/kg i.p. 0.5 h before): almost totally prevents the appearance of stereotypies; effect of haloperidol on induced stereotypies (rats [2]; haloperidol 0.5 mg/kg i.p. 0.5 h before): totally inhibits the said stereotypies
CC(=O)Nc1ccc(C(=O)C(C)NC2CC2)cc1 (stereo not shown) [CRL 41 245] |  | presence of stereotype movements in mice and rats | potentiation of the stereotypies induced by apomorphine | behaves as an antidepressant with a strong stimulant component | reduction in the duration of the sleep induced by barbital | excitation with hyperreactivity in mice | increase in the spontaneous motor activity | potentiation of the stereotypies induced by apomorphine and amphetamine | antagonism of the hypothermia induced by apomorphine, reserpine | reduction in the ptosis induced by reserpine | antagonism of the hypothermia induced by apomorphine | improvement in the motor recovery in mice subjected to acute hypoxia | reduction in the period of immobility | resumption in the motor activity of mice accustomed to their enclosure | mydriasis in rats | peripheral α-adrenergic stimulation | antagonism of the hypothermia induced by apomorphine, reserpine and oxotremorine | excitation in rats (rats [3]): excitation with hyperreactivity in mice and rats; stereotype movements in mice (mice [6]): presence of stereotype movements in mice; LD-0 (maximum non-lethal dose) (male mice [11]): greater than 256 mg/kg; LD-100 (male mice [11]): less than or equal to 512 mg/kg; convulsant effects of electric shock (mice [14]; strong/high dose): total antagonism; number of punished passes in the 4 plate test (mice [14]; mice, dose not stated): increase in the number of punished passes; intergroup aggression (mice [16]): a reduction in the intergroup aggression; piloerection ([17]; mice and rats): piloerection in mice and rats; trembling due to oxotremorine (mice [18]; strong dose): a reduction, at a strong dose, in the intensity of the trembling due to oxotremorine
CNC(C)C(=O)c1ccc(NC(C)=O)cc1 (stereo not shown) [CRL 41 217] |  | stereotype movements in rats | potentiation of the stereotypies induced by apomorphine | stimulant effects; also recorded: antidepressant effects | antagonism of the sleep induced by barbital | excitation with hyperreactivity in mice | an increase in the spontaneous motility in mice | potentiation of the stereotypies induced by apomorphine or amphetamine | antagonism of the hypothermia induced by apomorphine, oxotremorine or reserpine | antagonism of the ptosis induced by reserpine | antagonism of the hypothermia induced by apomorphine | an improvement in the motor recovery in mice after acute hypoxia | a reduction in the immobility | a resumption in the motor activity of mice accustomed to their enclosure | mydriasis | effects which may reflect peripheral adrenergic stimulation | antagonism of the hypothermia induced by apomorphine, oxotremorine | suppression of induced stereotype movements by prior injection of alpha-methyltyrosine (rats [2]): not suppressed; convulsant effects of electric shock (mice [14]; dose not stated): potentiate the convulsant effects of electric shock; exophthalmos [17]: absent; salivation [17]: absent; toxicity to grouped mice compared with isolated mice (mice [19]): do not increase the toxicity to grouped mice; trembling caused by oxotremorine (mice [18]): antagonism of the trembling caused by oxotremorine
CCCNC(C)C(=O)c1ccc(NC(C)=O)cc1 (stereo not shown) [CRL 41 212] |  | stereotype movements in rats | potentiation of the stereotypies induced by apomorphine | stimulant effects; also recorded: antidepressant effects | antagonism of the sleep induced by barbital | excitation with hyperreactivity in mice | an increase in the spontaneous motility in mice | potentiation of the stereotypies induced by apomorphine or amphetamine | antagonism of the hypothermia induced by apomorphine, oxotremorine or reserpine | antagonism of the ptosis induced by reserpine | antagonism of the hypothermia induced by apomorphine | an improvement in the motor recovery in mice after acute hypoxia | a reduction in the immobility | a resumption in the motor activity of mice accustomed to their enclosure | mydriasis | effects which may reflect peripheral adrenergic stimulation | antagonism of the hypothermia induced by apomorphine, oxotremorine | suppression of induced stereotype movements by prior injection of alpha-methyltyrosine (rats [2]): not suppressed; convulsant effects of electric shock (mice [14]; dose not stated): anticonvulsant effects; exophthalmos [17]: absent; salivation [17]: absent; toxicity to grouped mice compared with isolated mice (mice [19]): do not increase the toxicity to grouped mice; trembling caused by oxotremorine (mice [18]): antagonism of the trembling caused by oxotremorine
COC(=O)[C@H]1[C@@H](OC(=O)c2ccccc2)C[C@@H]2CC[C@H]1N2C [cocaine] | potentialized by I.V.C. administration of noradrenaline |  |  |  |  |  |  |  |  |  |  |  |  |  |  |  |  | 
COC(=O)C(c1ccccc1)C1CCCCN1 (stereo not shown) [methylphenidate, reference compound] | potentialized by I.V.C. administration of noradrenaline |  |  |  |  |  |  |  |  |  |  |  |  |  |  |  |  | effect of reserpine on induced stereotypies (rats [2]; reserpine 4 mg/kg i.p. 24 hours before): only a moderate reduction of the stereotypies
